Assays:
velvetleaf [1] = assay: Test A pre-/postemergence greenhouse test; format: in vivo, Abutilon theophrasti; details: for Plant response rating, Velvetleaf: 0 to 100 scale where 0 is no effect and 100 is complete control; for Velvetleaf plant response rating: 0 to 100 scale
Outline: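 Each test compound, dissolved in a non-phytotoxic solvent mixture with surfactant, was sprayed directly onto seeded soil (loam/sand blend) and, at the same moment, onto seedlings carrying one to two leaves. Around ten greenhouse days later, plants were rated visually for injury relative to untreated controls.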

blackgrass = assay: Test C pre-/postemergence test; format: in vivo, Alopecurus myosuroides
Outline: (§1)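 Test chemicals were formulated with surfactant in a non-phytotoxic solvent and sprayed both on freshly planted seeds (preemergence) and on 1- to 4-leaf plants of 2–18 cm (postemergence). Flooded-paddy pots received compound directly into 3 cm of standing water, maintained for the test.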

downy brome = assay: Test C pre-/postemergence test; format: in vivo, Bromus tectorum
Outline: as §1

green foxtail = assay: Test C pre-/postemergence test; format: in vivo, Setaria viridis
Outline: as §1

Italian ryegrass = assay: Test C pre-/postemergence test; format: in vivo, Lolium multiflorum
Outline: as §1

wild oat = assay: Test C pre-/postemergence test; format: in vivo, Avena fatua
Outline: as §1

catchweed bedstraw = assay: Test C pre-/postemergence test; format: in vivo, Galium aparine
Outline: as §1

cocklebur = assay: Test C pre-/postemergence test; format: in vivo, Xanthium strumarium
Outline: as §1

corn = assay: Test C pre-/postemergence test; format: in vivo, Zea mays
Outline: as §1

woolly cupgrass = assay: Test C pre-/postemergence test; format: in vivo, Eriochloa villosa
Outline: as §1

giant foxtail = assay: Test C pre-/postemergence test; format: in vivo, Setaria faberii
Outline: as §1

johnsongrass = assay: Test C pre-/postemergence test; format: in vivo, Sorghum halepense
Outline: as §1

morningglory = assay: Test C pre-/postemergence test; format: in vivo, Ipomoea coccinea
Outline: as §1

soybean = assay: Test C pre-/postemergence test; format: in vivo, Glycine max
Outline: as §1

velvetleaf [2] = assay: Test C pre-/postemergence test; format: in vivo, Abutilon theophrasti
Outline: as §1

duck salad = assay: Test C flooded paddy test; format: in vivo, Heteranthera limosa; details: Flood
Outline: (§2)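 Flooded 3 cm over soil; compound into paddy water; depth kept constant. Greenhouse 13–15 d.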

barnyardgrass = assay: Test C flooded paddy test; format: in vivo, Echinochloa crus-galli; details: Flood
Outline: as §2

[3] = Postemergence, 500 g ai/ha, 0 is no effect, 100 is complete control
[4] = Preemergence, 125 g ai/ha, 0 no effect, 100 complete control
[5] = 62 g ai/ha, Preemergence, scale 0 to 100
[6] = 125 g ai/ha, preemergence, scale 0 (no effect) to 100 (complete control)
[7] = Preemergence, 31 g ai/ha, scale 0 to 100 (0 no effect, 100 complete control)
[8] = preemergence, 250 g ai/ha, scale 0 (no effect) to 100 (complete control)
[9] = 62 g ai/ha, scale 0 to 100 (0 no effect, 100 complete control)
[10] = 250 g ai/ha, scale 0 to 100, 0 no effect, 100 complete control, 13 to 15 days
[11] = 31 g ai/ha, Preemergence, scale 0 to 100
[12] = 62 g ai/ha, preemergence, scale 0 (no effect) to 100 (complete control)
[13] = preemergence, 125 g ai/ha, scale 0 (no effect) to 100 (complete control)
[14] = 31 g ai/ha, scale 0 to 100 (0 no effect, 100 complete control)
[15] = 62 g ai/ha, scale 0 to 100, 0 no effect, 100 complete control, 13 to 15 days
[16] = 125 g ai/ha, scale 0 to 100, 0 no effect, 100 complete control, 13 to 15 days
[17] = 250 g ai/ha, scale 0 to 100 (0 no effect, 100 complete control)

Compound: C#CCOc1c(C[S+]([O-])c2cccc[n+]2[O-])c(C(F)(F)F)nn1C (stereo not shown) [Compound 76]
- Plant response rating, Velvetleaf (velvetleaf [1]; Postemergence, 125 g ai/ha): 60
- Velvetleaf plant response rating (velvetleaf [1]; [3]): 80
- Velvetleaf plant response rating (velvetleaf [1]; [4]): 50
- Plant response rating, Velvetleaf (velvetleaf [1]; Preemergence, 500 g ai/ha): 80
- Blackgrass plant response rating (blackgrass; [5]): 100
- Blackgrass plant response rating (blackgrass; [6]): 100
- Plant response rating, Blackgrass (blackgrass; [7]): 0
- Blackgrass plant response rating (blackgrass; [8]): 100
- Bromegrass, Downy plant response rating (downy brome; [5]): 45
- Bromegrass, Downy plant response rating (downy brome; [6]): 60
- Plant response rating, Bromegrass, Downy (downy brome; [7]): 0
- Bromegrass, Downy plant response rating (downy brome; [8]): 85
- Foxtail, Green plant response rating (green foxtail; [5]): 100
- Foxtail, Green plant response rating (green foxtail; [6]): 100
- Plant response rating, Foxtail, Green (green foxtail; [7]): 70
- Foxtail, Green plant response rating (green foxtail; [8]): 100
- Ryegrass, Italian plant response rating (Italian ryegrass; [5]): 50
- Ryegrass, Italian plant response rating (Italian ryegrass; [6]): 70
- Plant response rating, Ryegrass, Italian (Italian ryegrass; [7]): 0
- Ryegrass, Italian plant response rating (Italian ryegrass; [8]): 100
- Oat, Wild plant response rating (wild oat; [5]): 50
- Oat, Wild plant response rating (wild oat; [6]): 60
- Plant response rating, Oat, Wild (wild oat; [7]): 0
- Oat, Wild plant response rating (wild oat; [8]): 95
- Galium plant response rating (catchweed bedstraw; [5]): 100
- Galium plant response rating (catchweed bedstraw; [6]): 100
- Plant response rating, Galium (catchweed bedstraw; [7]): 100
- Galium plant response rating (catchweed bedstraw; [8]): 100
- Cocklebur plant response rating (cocklebur; [5]): 0
- Cocklebur plant response rating (cocklebur; [6]): 0
- Plant response rating, Cocklebur (cocklebur; [7]): 0
- Cocklebur plant response rating (cocklebur; [8]): 10
- Corn plant response rating (corn; [5]): 80
- Corn plant response rating (corn; [6]): 100
- Plant response rating, Corn (corn; [7]): 0
- Corn plant response rating (corn; [8]): 100
- Cupgrass, Woolly plant response rating (woolly cupgrass; [5]): 70
- Cupgrass, Woolly plant response rating (woolly cupgrass; [6]): 95
- Plant response rating, Cupgrass, Woolly (woolly cupgrass; [7]): 0
- Cupgrass, Woolly plant response rating (woolly cupgrass; [8]): 100
- Foxtail, Giant plant response rating (giant foxtail; [5]): 90
- Foxtail, Giant plant response rating (giant foxtail; [6]): 100
- Plant response rating, Foxtail, Giant (giant foxtail; [7]): 75
- Foxtail, Giant plant response rating (giant foxtail; [8]): 100
- Johnsongrass plant response rating (johnsongrass; [5]): 95
- Johnsongrass plant response rating (johnsongrass; [6]): 100
- Plant response rating, Johnsongrass (johnsongrass; [7]): 85
- Johnsongrass plant response rating (johnsongrass; [8]): 100
- Morningglory plant response rating (morningglory; [5]): 20
- Morningglory plant response rating (morningglory; [6]): 100
- Plant response rating, Morningglory (morningglory; [7]): 0
- Morningglory plant response rating (morningglory; [8]): 100
- Soybean plant response rating (soybean; [5]): 40
- Soybean plant response rating (soybean; [6]): 80
- Plant response rating, Soybean (soybean; [7]): 0
- Soybean plant response rating (soybean; [8]): 95
- Velvetleaf plant response rating (velvetleaf [2]; [5]): 100
- Velvetleaf plant response rating (velvetleaf [2]; [6]): 100
- Plant response rating, Velvetleaf (velvetleaf [2]; [7]): 0
- Velvetleaf plant response rating (velvetleaf [2]; [8]): 100
- Plant response rating, Ducksalad (duck salad; [9]): 0
- Plant response rating, Ducksalad (duck salad; [10]): 100
- Plant response rating, Barnyardgrass (barnyardgrass; [9]): 0
- Plant response rating, Barnyardgrass (barnyardgrass; [10]): 20

Compound: Cc1cc[n+]([O-])c(S(=O)(=O)C(C)c2c(C(F)(F)F)nn(C)c2OC(F)F)c1 (stereo not shown) [Compound 11]
- Velvetleaf plant response rating (velvetleaf [1]; Postemergence, 125 g ai/ha, 0 is no effect, 100 is complete control): 40
- Velvetleaf plant response rating (velvetleaf [1]; [3]): 60
- Velvetleaf plant response rating (velvetleaf [1]; [4]): 80
- Plant response rating, Velvetleaf (velvetleaf [1]; Preemergence, 500 g ai/ha): 90
- Blackgrass plant response rating (blackgrass; [11]): 0
- Blackgrass plant response rating (blackgrass; [12]): 0
- Plant response rating (0 to 100), Blackgrass (blackgrass; Preemergence, 250 g ai/ha): 90
- Blackgrass plant response rating (blackgrass; [13]): 90
- Bromegrass, Downy plant response rating (downy brome; [11]): 0
- Bromegrass, Downy plant response rating (downy brome; [12]): 10
- Plant response rating (0 to 100), Bromegrass, Downy (downy brome; Preemergence, 250 g ai/ha): 60
- Bromegrass, Downy plant response rating (downy brome; [13]): 50
- Foxtail, Green plant response rating (green foxtail; [11]): 80
- Foxtail, Green plant response rating (green foxtail; [12]): 100
- Plant response rating (0 to 100), Foxtail, Green (green foxtail; Preemergence, 250 g ai/ha): 100
- Foxtail, Green plant response rating (green foxtail; [13]): 100
- Ryegrass, Italian plant response rating (Italian ryegrass; [11]): 0
- Ryegrass, Italian plant response rating (Italian ryegrass; [12]): 40
- Plant response rating (0 to 100), Ryegrass, Italian (Italian ryegrass; Preemergence, 250 g ai/ha): 80
- Ryegrass, Italian plant response rating (Italian ryegrass; [13]): 70
- Oat, Wild plant response rating (wild oat; [11]): 0
- Oat, Wild plant response rating (wild oat; [12]): 0
- Plant response rating (0 to 100), Oat, Wild (wild oat; Preemergence, 250 g ai/ha): 80
- Oat, Wild plant response rating (wild oat; [13]): 20
- Galium plant response rating (catchweed bedstraw; [11]): 50
- Galium plant response rating (catchweed bedstraw; [12]): 100
- Plant response rating (0 to 100), Galium (catchweed bedstraw; Preemergence, 250 g ai/ha): 100
- Galium plant response rating (catchweed bedstraw; [13]): 100
- Cocklebur plant response rating (cocklebur; [11]): 0
- Cocklebur plant response rating (cocklebur; [12]): 0
- Plant response rating (0 to 100), Cocklebur (cocklebur; Preemergence, 250 g ai/ha): 0
- Cocklebur plant response rating (cocklebur; [13]): 0
- Corn plant response rating (corn; [11]): 0
- Corn plant response rating (corn; [12]): 50
- Plant response rating (0 to 100), Corn (corn; Preemergence, 250 g ai/ha): 98
- Corn plant response rating (corn; [13]): 98
- Cupgrass, Woolly plant response rating (woolly cupgrass; [11]): 60
- Cupgrass, Woolly plant response rating (woolly cupgrass; [12]): 80
- Plant response rating (0 to 100), Cupgrass, Woolly (woolly cupgrass; Preemergence, 250 g ai/ha): 100
- Cupgrass, Woolly plant response rating (woolly cupgrass; [13]): 85
- Foxtail, Giant plant response rating (giant foxtail; [11]): 80
- Foxtail, Giant plant response rating (giant foxtail; [12]): 98
- Plant response rating (0 to 100), Foxtail, Giant (giant foxtail; Preemergence, 250 g ai/ha): 100
- Johnsongrass plant response rating (johnsongrass; [11]): 100
- Johnsongrass plant response rating (johnsongrass; [12]): 100
- Plant response rating (0 to 100), Johnsongrass (johnsongrass; Preemergence, 250 g ai/ha): 100
- Johnsongrass plant response rating (johnsongrass; [13]): 100
- Morningglory plant response rating (morningglory; [11]): 98
- Morningglory plant response rating (morningglory; [12]): 100
- Plant response rating (0 to 100), Morningglory (morningglory; Preemergence, 250 g ai/ha): 100
- Morningglory plant response rating (morningglory; [13]): 100
- Soybean plant response rating (soybean; [11]): 0
- Soybean plant response rating (soybean; [12]): 0
- Plant response rating (0 to 100), Soybean (soybean; Preemergence, 250 g ai/ha): 100
- Soybean plant response rating (soybean; [13]): 20
- Velvetleaf plant response rating (velvetleaf [2]; [12]): 70
- Plant response rating (0 to 100), Velvetleaf (velvetleaf [2]; Preemergence, 250 g ai/ha): 100
- Velvetleaf plant response rating (velvetleaf [2]; [13]): 100
- Plant response rating, Ducksalad (duck salad; [14]): 0
- Plant response rating, Ducksalad (duck salad; [15]): 65
- Plant response rating, Ducksalad (duck salad; [16]): 85
- Plant response rating, Ducksalad (duck salad; [17]): 90
- Plant response rating, Barnyardgrass (barnyardgrass; [14]): 0
- Plant response rating, Barnyardgrass (barnyardgrass; [15]): 70
- Plant response rating, Barnyardgrass (barnyardgrass; [16]): 75
- Plant response rating, Barnyardgrass (barnyardgrass; [17]): 85
